The values that follow come from patent US20140243401A1, “METHODS OF SCREENING COMPOUNDS THAT ARE CYTOTOXIC TO TUMOR CELLS AND METHODS OF TREATING TUMOR CELLS USING SUCH COMPOUND” (The Johns Hopkins University, priority 2010, published 2014).

The subject of assay [1] is mitochondrial FAS. Nature of the assay: 14C-malonate incorporation into lipids of mitochondria isolated from MCF7 cells. Type of assay: biochemical, human. The conditions noted are these: FIG. 2, vs vehicle. The procedure:
(§1) Mammalian mitochondrial FAS activity may be determined in a variety of ways. For example, [14C]malonate may be added to isolated mitochondria, fatty acids are extracted, and then radioactivity is tested. (See Zhang et al., J. Bio. Chem. 278(41): 40067-40074, 2003; Mikolajczyk, J. and Brody, S., Eur. J. Biochem. 187: 431-437, 1990). The mitochondria are purified using methods known in the art. (See Qiagen's Qproteome Mitochondria Isolation Kit; Methods in Enzymology, Vol. 10, Chapter 11, 1967). To test the inhibition of mmFAS activity, a test compound is added to the reaction mixture. Therefore, a test compound may be screened according the methods described herein as follows: (i) isolating mitochondria; (ii) incubating mitochondria with [14C]malonate with and without a test compound; and (iii) determining the quantity of lipids and/or fatty acids produced. By comparing the amount of product in the presence of the test compound to the amount in its absence, the degree of inhibition can be determined.
Mitochondria from MCF7 cells were prepared following manufacturer's protocol (Mitochondria Isolation Kit, Sigma, Saint Louis, Mo.). Rat liver mitochondria were isolated by homogenization with a tissue homogenizer in H-medium (220 mM mannitol, 70 mM sucrose, 2 mM HEPES, and 0.5 g/L of fatty acid free bovine serum albumin, pH 7.4). […]

Assay [2] deals with mitochondrial FAS. Nature of the assay: 14C-malonate incorporation into mitochondrial fatty acids, mitochondria isolated from rat liver. The following applies: FIG. 3. It counts as biochemical. How it is done: as §1
Mitochondria from MCF7 cells were prepared following manufacturer's protocol (Mitochondria Isolation Kit, Sigma, Saint Louis, Mo.). Rat liver mitochondria were isolated by homogenization with a tissue homogenizer in H-medium (220 mM mannitol, 70 mM sucrose, 2 mM HEPES, and 0.5 g/L of fatty acid free bovine serum albumin, pH 7.4). The homogenate was centrifuged at 1100 g for 3 min and washed twice with H-medium. The supernatants were pooled and centrifuged at 6800 g for 15 min. The pellet was then rinsed again and centrifuged at 3000 g for 3 min. The mitochondria supernatants were saved. The sediments were resuspended in H-medium and centrifuged at 3000 g for 3 min. The mitochondria supernatants were combined and centrifuged at 20,000 g for 15 min. The resulting mitochondria pellet were rinsed and centrifuged again at 20,000 g for 20 min.
Isolated mitochondria (100-200 μg) were mixed with 50 mM TES-KOH (pH 7.2), 10 mM MgCl2, 0.3 M sorbitol, 0.1% BSA, 1 mM each of ATP, ADP, NADH, NADPH, CoA, DTT and 1 μCi of [2-^14C]malonic acid (50 mCi/mmol) in a total volume of 200 μl. The reaction was performed for 30 min at room temperature. C31, Riv7d or vehicle were added at the beginning of this reaction. At the end of 30 minutes, the mitochondria pellet was separated from supernatant by centrifugation at 14000 rpm for 5 min. After washing with 500 μl of 50 mM TES-KOH (pH 7.2) and 0.3 M sorbitol, the mitochondria were incubated in 200 μl of H2O and 20 μl of 10 M KOH for 15 min at 65° C. Then the samples were added with 40 μl of 5 M H2SO4 and 20 μl of 1 mM palmitic acid (in 1 M acetic acid in isopropanol). The ^14C labeled fatty acids were twice extracted with hexane and sent to scintillation counting after drying.

Assay [3] relates to AMP-activated protein kinase (AMPK). Nature of the assay: AMPK activation (pAMPK Western blot) in SKOV3 cells. Type of assay: cell-based, human. The following applies: over time, FIG. 8. From the text: Another indicator of cellular energy status and metabolic compromise is the activity on the cellular kinase AMP-activated protein kinase (AMPK). AMPK is a master energy sensor. AMPK regulates both enzyme activities and gene expression. When energy levels are low, and ATP levels fall with the concomitant rise in […] levels, AMPK is activated and phosphorylated. When energy levels are surfeit, AMPK is inactivated and not phosphorylated. Thus, AMPK controls metabolic fluxes between anabolic and catabolic states.
We determined the ability of C31 or Riv7d to cause the activation of AMPK in a variety of cancer cells in vitro. SKOV3 cells were cultured in DMEM containing 5 mM glucose medium with 10% fetal calf serum, 0.01 mg/ml insulin and 1% penicillin/streptomycin. Antibodies to pAMPK and AMPK were obtained from Cell Signaling. Cells were grown in 6-well plates at 5×10^4 per well and incubated overnight. Following drug treatment, the cells were harvested in Laemmli buffer and boiled for 5 minutes. Proteins were separated on a 4-15% SDS-PAGE gradient gel and transferred to a nitrocellulose membrane.

The test system is the same in assay [4]. Kind of assay: AMPK activation (pAMPK Western blot) in MCF 7 cells at varying glucose and oxygen. Type of assay: cell-based, human. The following applies: MCF 7, 1 mM or 5 mM glucose, 1% or 21% oxygen, FIGS. 12, 13. How it is done: FIG. 12 A illustrates the effects of varying oxygen and glucose concentrations on AMPK activation over time in the presence of C31 in MCF 7 cells.
Determination of AMP-activated protein kinase status was carried out using the procedure described above. Cells were grown in 6-well plates at 5×10^4 per well and incubated overnight. Cells were cultured in 1 mM or 5 mM glucose at either 1% or 21% (ambient) oxygen levels. These conditions were employed for treatment with vehicle, C31, or Riv7d. Following drug treatment, the cells were harvested in Laemmli buffer and boiled for 5 minutes. Proteins were separated on a 4-15% SDS-PAGE gradient gel and transferred to a nitrocellulose membrane. Antibodies to pAMPK and AMPK were obtained from Cell Signaling.

The subject of assay [5] is human cancer cell lines. Kind of assay: XTT cytotoxicity assay, all human cancer cell lines tested. Type of assay: cell-based. The procedure: Cytotoxicity can be easily measured using XTT assays, which provide an indication of mitochondrial activity. The XTT assay is a non-radioactive alternative for the [^51Cr] release cytotoxicity assay. XTT is a tetrazolium salt that is reduced to a formazan dye only by metabolically active, viable cells. The reduction of XTT is measured spectrophotometrically as OD490-OD650. Thus, cells that are actively metabolizing will form reaction product when subjected to XTT measurement.
For this experiment, cells were cultured under standard culture conditions. MCF7 human breast cancer cells were cultured in DMEM containing 5 mM glucose medium with 10% fetal calf serum, 0.01 mg/ml insulin and 1% penicillin/streptomycin. To measure the cytotoxicity of specific compounds against cancer cells, 9×10^3 MCF7 cells were plated per well in 96-well plates. Following overnight culture, the compounds, dissolved in DMSO, were added to the wells in 1 μl volume at specified concentrations. Vehicle controls were run for each experiment. Each condition was run in triplicate. After 24 to 72 h of incubation, cells were incubated for 4 hours with the XTT reagent as per manufacturer's instructions (Cell Proliferation Kit II (XTT) Roche Diagnostics, New Jersey). Plates were read at OD490 on a PerkinElmer Victor 1420. Three wells containing the XTT reagent without cells served as the plate blank. […]

Values joined by “and” are separate entries in the source; they are usually repeats but may differ in a detail not shown here. Equal values may be shown once.

On to `CCCCCCCCC1(C)SC(=O)C=C1OCC(=O)Nc1ccc(Cl)cc1` (stereo not shown) [Compound C31], for which the “effect on 14C-malonate incorporation into lipids of isolated mitochondria” value in assay [1] is “inhibited the incorporation of malonate into lipids in a dose-dependent manner”. For the same molecule, in assay [2] (isolated mitochondria), the “IC50, inhibition of mitochondrial FAS (14C-malonate incorporation)” value is “less than 4 μg per mL”. Moreover, in assay [2] (mitochondria isolated from rat liver), the “effect on 14C-malonate incorporation into mitochondrial fatty acids” value is given as “dose-dependent inhibitory effect”. Also, in assay [3], the “AMPK activation (pAMPK levels, Western blot)” value is “rapid activation of AMPK”. Also, the “AMPK phosphorylation (quantitative Western blots)” value in assay [4] is on record as “increased phosphorylation of AMPK”. Moreover, the CC50 in assay [5] (Homo sapiens, XTT, range over all cancer cell lines, read-out: LC50, human cancer cell lines) was 3.3 µg/mL to 16.7 µg/mL and 8.25 µM to 41.8 µM. Besides, in assay [5] (hepatocyte LC50 vs cancer cell line LC50), the “potential therapeutic index in vitro” value lay within 34 to 170 fold.
